Assay results published in patent US7423181B2, “Aminoalkoxy-functional chalcones” (Lica Pharmaceuticals A/S, priority 2002, dated 2008).
Converted amounts (≈) assume the structure as drawn.

Experiments:
[1] = test system: panel of 10 different non-fastidious bacteria; assay: Screening against panel of non-fastidious bacteria
[2] = test system: dihydroorotate dehydrogenase (DHODH); assay: DHODH assay; type: biochemical; details: at 10 μM
Experimental: 100 μl chalcone or 0.1 M Tris-HCl pH 8.0 is added to a well in a 96-wells microtiter plate. Then 50 μl enzyme dilution is added. The microtiter plate is placed in the Powerwavex340 and the enzymatic reactions starts when adding 100 μl assay mixture. The reaction are measured every 20 sec. for 10 min. The samples with chalcones are compared with the samples with 0.1 M Tris-HCl pH 8.0 and the percent inhibition is calculated.
Enzyme dilution: The solution of recombinant purified enzyme is dissolved in 0.1 M Tris-HCl pH 8 to give an initial velocity of 0.04-0.05 ΔA/min.
2,6-dichlorophenolindophenol (DCIP)-stock solution: 40 mg DCIP and 10 ml 99% Ethanol are mixed for 10 min at RT. Then 100 μl 1.0 M Tris-HCl pH 8 and miliQ H2O are added to a final volume of 100 ml. The A600 of the DCIP-stock solution are measured in a microtiter plate on the Powerwavex340 (Bio-Tek instruments,Inc.)
[…]: 25 mM dihydroorotate stock-solution is prepared by first dissolving in the same amount of mol NaOH and then miliQ H2O is added to the final volume.
Assay mix (10 ml solution): 600 μl of DHODH-stock solution and X ml (depending on the A600 value of stock-solution) DCIP to a final A600=2.5 are mixed. Then 0.1 M Tris-HCl pH 8.0 are added to a final volume of 10 ml.
Preparation of compound soluton: A 10 mM stock-solution of compound (e.g. a chalcone derivative) is made in dimethylsulfoxid (DMSO). The compound is then diluted in 0.1 M Tris-HCl pH 8 to the test concentrations. The final DMSO concentration in the sample is 10%

[3] = test system: Bacteroides fragilis, Clostridium perfringens, Clostridium difficele; type: cell-based; details: single concentration of compound (100 μM)
[4] = test system: L. major promastigotes; assay: Leishmania promastigote assay
[5] = Determination of solubility; type: physicochemical; details: aqueous buffer at pH 7.4
Experimental: Determination of Solubility
Solubility of the compounds was determined by preparing a saturated solution of compound in 0.3 M phosphate buffer (pH 7.4±0.3) in a brown glass tube. The suspensions were rotated slowly for 24 hours. Aliquots were centrifuged for 10 minutes at 14.000 rpm and supernatants were diluted in 40% (v/v) acetonitrile in water prior to HPLC analysis. Concentrations of analytes were quantified against a standard curve and used as term of solubility. The HPLC-UV method used for the assessment of solubility is the same as used in the in vitro metabolism assay.

[6] = test system: Plasmodium falciparum 3D7; assay: Plasmodium falciparum assay; type: cell-based; details: Plasmodium falciparum 3D7 (Table 2); read-out: IC50
[7] = test system: Eschericia coli ATCC25922; assay: MIC determination in broth microdilution assay; details: for MIC: G: Eschericia coli ATCC25922
[8] = test system: Eschericia coli ESS; assay: MIC determination in broth microdilution assay; details: for MIC: H: Eschericia coli ESS
[9] = test system: Enterococcus faecium #17501 (vancomycin-resistant clinical isolate); assay: MIC determination in broth microdilution assay; details: E: Enterococcus faecium #17501 (vancomycin-resistant)
[10] = Determination of metabolic stability (liver microsomes); type: in vitro ADME; details: rat liver microsomes, 20 μM, 15 min
Experimental: Determination of Metabolic Stability
Incubations were performed with Wistar rat liver microsomes (0.25 mg/ml) in 2% sodium bicarbonate solution. NADP (0.13 mg/ml), glucose-6-phosphate (0.63 mg/ml) and glucose-6-phosphate dehydrogenase (0.38 units/ml) were used as NADPH generation system and UDPGA (0.48 mg/ml) was added to include the phase II reaction, glucuronic acid conjugation, in the assay. After 5 minutes of pre-incubation the reaction was started by addition of the test article to give a final concentration of 20 μM. Samples were incubated for 15 min at 37° C. and the reactions were terminated by addition of equal volumes of acetonitrile. Blank incubations were performed at the same concentration but without addition of microsomes. Both blank and microsome-containing samples were made in replicats of three. Prior to analysis samples were centrifuged for 10 min. at 3500 rpm,HPLC system:
Initial conditions were 40% mobile phase A (acetonitrile) and 60% mobile phase B (10 mM ammonium acetate pH 9.5). During the first 20 minutes, the mobile phase was changed via a linear gradient to 90% A and 10% B. This was followed by a 5 minutes linear gradient to initial conditions, which were maintained for 5 min. The flow rate was 0.20 m)/min and injection volume 10 μl.

[11] = test system: Enterococcus faecalis ATCC29212; assay: MIC determination in broth microdilution assay; details: D: Enterococcus faecalis ATCC29212
[12] = test system: Staphylococcus aureus ATCC29213; assay: MIC determination in broth microdilution assay; details: A: Staphylococcus aureus ATCC29213
[13] = test system: Staphylococcus aureus ATCC33591(resistant to methicillin); assay: MIC determination in broth microdilution assay; details: B: Staphylococcus aureus ATCC33591(resistant to methicillin)

With `COc1ccc(C(=O)/C=C/c2ccccc2)cc1` [4′MC, 4′-methoxy chalcone, reference compound] the antibacterial effect [1] was “no antibacterial effect at all” and the “Inhibition of DHODH” value [2] was 7%.
With `COc1ccc(C(=O)/C=C/c2cc(-c3ccccc3OC)ccc2OCCN(C)C)c(F)c1` [Compound C015, (E)-3-[4-(2-Dimethylamino-ethoxy)-2′-methoxy-biphenyl-3-yl]-1-(2-fluoro-4-methoxy-phenyl)-propenone] the “activity against anaerobic bacteria” value [3] was “activity against all microorganisms within the test panel”, the “potency against Gram-positive pathogens in comparison with Licochalcone A” value (“potency against Gram-positive pathogens” for short) [1] was “increased potency” and the IC50 ([4]; L. major) was 100 nM.
Work on `COc1ccc(C(=O)C=Cc2cc(-c3ccccc3Cl)ccc2OCCN(C)C)c(OC)c1OC` [Compound C018, (E)-3-[2′-Chloro-4-(2-dimethylamino-ethoxy)-biphenyl-3-yl]-1-(2,3,4-trimethoxy-phenyl)-propenone] yielded a Solubility [5] of 1500 µg/mL (≈ 3.02 mM).
With `COc1ccc(C(=O)/C=C/c2cc(-c3ccccc3C)ccc2OCCN(C)C)cc1` [Compound C019, (E)-3-[4-(2-Dimethylamino-ethoxy)-2′-methyl-biphenyl-3-yl]-1-(4-methoxy-phenyl)-propenone] the “Inhibition of DHODH” value [2] was 18% and the “times more potent than LicA” value ([4]; dose-respons curve at Leishmania Major, FIG. 5) was 100 times.
For `COc1ccc(C(=O)/C=C/c2cc(-c3ccccc3C)ccc2OCCN(C)C)c(F)c1` [Compound C020, (E)-3-[4-(2-Dimethylamino-ethoxy)-2′-methyl-biphenyl-3-yl]-1-(2-fluoro-4-methoxy-phenyl)-propenone], the “Inhibition of DHODH” value [2] was 18% and the IC50 ([4]; L. major) was 30 nM.
For `COc1ccc(C(=O)/C=C/c2cc(-c3ccccc3C)ccc2OCCN(C)C)c(Cl)c1` [Compound C022, (E)-1-(2-Chloro-4-methoxy-phenyl)-3-[4-(2-dimethylamino-ethoxy)-2′-methyl-biphenyl-3-yl]-propenone], the “Inhibition of DHODH” value [2] was 21%.
For `COc1ccc(C(=O)/C=C/c2cc(-c3cc(C)cc(C)c3)ccc2OCCN(C)C)c(OC)c1OC` [Compound C025, (E)-3-[4-(2-Dimethylamino-ethoxy)-3′,5′-dimethyl-biphenyl-3-yl]-1-(2,3,4-trimethoxy-phenyl)-propenone], the “activity against anaerobic bacteria” value [3] was “activity against all microorganisms within the test panel”.
In the case of `CN(C)CCOc1ccc(C(C)(C)C)cc1/C=C/C(=O)c1ccccc1NS(=O)(=O)c1ccccc1` [Compound C027, N-(2-{3-[5-tert-Butyl-2-(2-dimethylamino-ethoxy)-phenyl]-(E)-acryloyl}-phenyl)-benzenesulfonamide], the “Inhibition of DHODH” value [2] is reported as 22%.
Compound `COc1ccccc1-c1ccc(OCCN(C)C)c(/C=C/C(=O)c2ccccc2CN(C)C)c1` [Compound C036, (E)-3-[4-,(2-Dimethylamino-ethoxy)-2′-methoxy-biphenyl-3-yl]-1-(2-dimethylaminomethyl-phenyl)-propenone] has a Solubility [5] of 1800 µg/mL (≈ 3.92 mM) and an IC50 [6] of 200 nM.
In the case of `CN(C)CCOc1ccc(-c2ccccc2)cc1/C=C/C(=O)c1cccc(CN(C)C)c1` [Compound C037, (E)-3-[4-(2-Dimethylamino-ethoxy)-biphenyl-3-yl]-1-(3-dimethylaminomethyl-phenyl)-propenone], the Solubility [5] is reported as 1500 µg/mL (≈ 3.5 mM), the “potency against Gram-positive pathogens” value [1] is reported as “increased potency” and the IC50 ([4]; L. major) is reported as 500 nM.
In the case of `CN(C)CCCOc1ccc(C(C)(C)C)cc1/C=C/C(=O)c1ccccc1NS(=O)(=O)c1ccccc1` [Compound C042, N-(2-{3-[5-tert-Butyl-2-(3-dimethylamino-propoxy)-phenyl]-(E)-acryloyl}-phenyl)-benzenesulfonamide], the “activity against anaerobic bacteria” value [3] is reported as “activity against all microorganisms within the test panel”, the “potency against Gram-positive pathogens” value [1] is reported as “increased potency” and the IC50 ([4]; Leishmania major) is reported as 200 nM.
In the case of `Cc1ccccc1-c1ccc(OCCN(C)C)c(CCC(=O)c2ccccc2CN(C)C)c1` [Compound C073, 3-[4-(2-Dimethylamino-ethoxy)-2′-methyl-biphenyl-3-yl]-1-(2-dimethylaminomethyl-phenyl)-propan-1-one], the solubility at 24 h ([5]; 0.3 M phosphate buffer, thermodynamic from solid) is reported as > 10000 µg/mL.
With `Cc1cc(C)cc(-c2ccc(OCCN(C)C)c(/C=C/C(=O)c3ccccc3NCCN(C)C)c2)c1` [Compound C074, (E)-3-[4-(2-Dimethylamino-ethoxy)-3′,5′-dimethyl-biphenyl-3-yl]-1-[2-(2-dimethylamino-ethylamino)-phenyl]-propenone] the “activity against E coli ATCC25922” value [7] was “high activity”, the MIC [7] was 9.4 µM (≈ 4.57 µg/mL) and the “activity against anaerobic bacteria” value [3] was “activity against all microorganisms within the test panel”. The “activity against ESS strain of E.coli” value [8] was “high activity”, the MIC [8] was 4.7 µM (≈ 2.28 µg/mL) and the MIC [9] was 9.4 µM (≈ 4.57 µg/mL). The “Metabolic turn-over in vitro” value [10] was 7%, the MIC [11] was 9.4 µM (≈ 4.57 µg/mL) and the MIC [12] was 9.4 µM (≈ 4.57 µg/mL). For the same compound, the MIC [13] was 9.4 µM (≈ 4.57 µg/mL).
With `Cc1cc(C)cc(-c2ccc(OCCN(C)C)c(/C=C/C(=O)c3cccc(NCCN(C)C)c3)c2)c1` [Compound C075, (E)-3-[4-(2-Dimethylamino-ethoxy)-3′,5′-dimethyl-biphenyl-3-yl]-1-[3-(2-dimethylamino-ethylamino)-phenyl]-propenone] the “activity against E coli ATCC25922” value [7] was “high activity”, the MIC [7] was 9.4 µM (≈ 4.57 µg/mL) and the “activity against ESS strain of E.coli” value [8] was “high activity”. For the same compound, the MIC [8] was 4.7 µM (≈ 2.28 µg/mL), the Solubility [5] was 4100 µg/mL (≈ 8.44 mM) and the MIC [9] was 9.4 µM (≈ 4.57 µg/mL). The “Metabolic turn-over in vitro” value [10] was 8%, the IC50 [6] was 500 nM and the MIC [11] was 9.4 µM (≈ 4.57 µg/mL). For the same compound, the MIC [12] was 4.7 µM (≈ 2.28 µg/mL) and the MIC [13] was 4.7 µM (≈ 2.28 µg/mL).
In the case of `Cc1cc(C)cc(-c2ccc(OCCN(C)C)c(C=CC(=O)c3cccc(F)c3)c2)c1` [Compound C079, (E)-3-[4-(2-Dimethylamino-ethoxy)-3′,5′-dimethyl-biphenyl-3-y]-1-(3-fluoro-phenyl)-propenone], the “activity against anaerobic bacteria” value [3] is reported as “activity against all microorganisms within the test panel”.
For `Cc1ccccc1-c1ccc(OCCN(C)C)c(/C=C/C(=O)c2ccc(O)c(CN(C)C)c2)c1` [Compound C108, (E)-3-[4-(2-Dimethylamino-ethoxy)-2′-methyl-biphenyl-3-yl]-1-(3-dimethylaminomethyl-4-hydroxy-phenyl)-propenone], the Solubility [5] was 18100 µg/mL (≈ 39.5 mM).
With `Cc1ccccc1-c1ccc(OCCN2CCCC2)c(/C=C/C(=O)c2ccccc2CN(C)C)c1` [Compound C136, (E)-1-(2-Dimethylaminomethyl-phenyl)-3-[2′-methyl-4-(2-pyrrolidin-1-yl-ethoxy)-biphenyl-3-yl]-propenone] the Solubility [5] was 5500 µg/mL (≈ 11.7 mM).
